Here are results for one compound from PubChem BioAssay AID588539 (The Scripps Research Institute Molecular Screening Center, 2011).

This experiment is described as follows: cell cycle phase distribution in DLD-1 cells, late-stage follow-up, counter-screen for KLF5 inhibitor project, flow cytometry, propidium iodide, powder samples (AID 588539). The settings on record: DLD-1 cell cycle, at 10 µM; for G1 cells: G1 phase fraction; for G2/M cells: G2/M phase fraction; for S cells: S phase fraction; for subG1 cells: stronger effect = higher value. (In general: A counterscreen serves to expose hits that act by an unwanted route or on another target.)

Where the note is “24 h”, `CN(C(=O)COC(=O)/C=C/c1cccc([N+](=O)[O-])c1)C1CCS(=O)(=O)C1` (stereo not drawn) yielded a G1 cells of 39.4%, a G2/M cells of 34.7%, a S cells of 18.3% and a subG1 cells of 8.03%. Further, for the setting “48 h”, the G1 cells worked out at 27.6%, the G2/M cells is 57.6%, the S cells turned out to be 13% and the subG1 cells came out at 1.86%.
